Consider 23 compounds from patent US20110190269A1, “GAMMA SECRETASE MODULATORS” (priority 2010, published 2011).

Molecules are shown by their SMILES.

This assay relates to γ-secretase. Put plainly: Cellular γ-secretase assay (inhibition of Aβ42 secretion). In kind it is cell-based. The note with it: human neuroglioma H4 cells overexpressing human APP, 22 hrs incubation. In outline: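 H4 neuroglioma cells overexpressing human APP got a ten-point compound dilution (0.4% DMSO final) for 22 h at 37 °C. Secreted Aβ42 in the supernatant was measured by electrochemiluminescence sandwich immunoassay (capture biotinylated 6E10, detection ruthenylated BAP15). IC50 came from a nonlinear regression fit.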
One may read the EC50 as the concentration needed to bring the measured effect to its halfway point. Lower therefore signals higher potency in that assay. The compound `COc1cc(Nc2nc3c(-c4ccc(F)c(C#N)c4)cc(C)cn3n2)ccc1-n1cnc(C)c1` [Example 78, 2-Fluoro-5-(2-(3-methoxy-4-(4-methyl-1H-imidazol-1-yl)phenylamino)-6-methyl-[1,2,4]triazolo[1,5-a]pyridin-8-yl)benzonitrile] had an EC50 of 0.027 µM.
On to `COc1cc(Nc2nc3nc(C(F)(F)F)cc(-c4ccc(F)c(Cl)c4)n3n2)ccc1-n1cnc(C)c1` [Example 79, 7-(3-Chloro-4-fluorophenyl)-N-(3-methoxy-4-(4-methyl-1H-imidazol-1-yl)phenyl)-5-(trifluoromethyl)-[1,2,4]triazolo[1,5-a]pyrimidin-2-amine acetate], for which the EC50 came to 0.073 µM.
The same measure for `COc1cc(Nc2nc3n(n2)C(c2ccccc2)CCO3)ccc1-n1cnc(C)c1` (centres unmarked) [Example 109, N-(3-Methoxy-4-(4-methyl-1H-imidazol-1-yl)phenyl)-7-phenyl-6,7-dihydro-5H-[1,2,4]triazolo[5,1-b][1,3]oxazin-2-amine]: 0.27 µM.
In turn, `COc1cc(Nc2nc3c(-c4ccc(F)c(F)c4)cc(C4CC4)cn3n2)ccc1-n1cnc(C)c1` [Example 146, [6-Cyclopropyl-8-(3,4-difluoro-phenyl)-[1,2,4]triazolo[1,5-a]pyridin-2-yl]-[3-methoxy-4-(4-methyl-imidazol-1-yl)-phenyl]-amine] gave an EC50 of 0.069 µM.
Consider `COc1cc(Nc2nc3c(CN4CCOCC4)cnc(-c4ccccc4)n3n2)ccc1-n1cnc(C)c1` [Example 29, [3-Methoxy-4-(4-methyl-imidazol-1-yl)-phenyl]-(8-morpholin-4-ylmethyl-5-phenyl-[1,2,4]triazolo[1,5-c]pyrimidin-2-yl)-amine], for which a half-maximal response (EC50) required 1.27 µM. Compared with the last compound, the EC50 is about 18-fold higher.
The same measure for `COc1cc(Nc2nc3cccc(N4CCCCC4)n3n2)ccc1-n1cnc(C)c1` [Example 33, [3-Methoxy-4-(4-methyl-imidazol-1-yl)-phenyl]-(5-piperidin-1-yl-[1,2,4]triazolo[1,5-a]pyridin-2-yl)-amine]: 0.556 µM; for `COc1cc(Nc2nc3cccc(-c4ccccc4)n3n2)ccc1-n1cnc(C)c1` [Example 6, [3-Methoxy-4-(4-methyl-imidazol-1-yl)-phenyl]-(5-phenyl-[1,2,4]triazolo[1,5-a]pyridin-2-yl)-amine]: 0.12 µM.
`COc1cc(Nc2nc3c(Oc4ccccc4)cccn3n2)ccc1-n1cnc(C)c1` [Example 136, N-(3-methoxy-4-(4-methyl-1H-imidazol-1-yl)phenyl)-8-phenoxy-[1,2,4]triazolo[1,5-a]pyridin-2-amine]: the response was half-maximal at 0.152 µM (EC50).
The same measure for `COc1cc(Nc2nc3cccc(C(F)(F)F)n3n2)ccc1-n1cnc(C)c1` [Example 17, [3-Methoxy-4-(4-methyl-imidazol-1-yl)-phenyl]-(5-trifluoromethyl-[1,2,4]triazolo[1,5-a]pyridin-2-yl)-amine]: 0.285 µM; for `COc1cc(Nc2nc3n(n2)C(c2ccc(F)cc2)CN(S(C)(=O)=O)C3)ccc1-n1cnc(C)c1` (centres unmarked) [Example 57, 5-(4-Fluorophenyl)-N-(3-methoxy-4-(4-methyl-1H-imidazol-1-yl)phenyl)-7-(methylsulfonyl)-5,6,7,8-tetrahydro-[1,2,4]triazolo[1,5-a]pyrazin-2-amine]: 0.431 µM; for `COc1cc(Nc2nc3c(Cl)cc(C(F)(F)F)cn3n2)ccc1-n1cnc(C)c1` [Example 48, (8-Chloro-6-trifluoromethyl-[1,2,4]triazolo[1,5-a]pyridin-2-yl)-[3-methoxy-4-(4-methyl-imidazol-1-yl)-phenyl]-amine]: 4.51 µM.
With `COc1cc(Nc2nc3c(-c4ccc(F)cc4Cl)cccn3n2)ccc1-c1cc(C)ncn1` [Example 114, 8-(2-chloro-4-fluorophenyl)-N-(3-methoxy-4-(6-methylpyrimidin-4-yl)phenyl)-[1,2,4]triazolo[1,5-a]pyridin-2-amine], the EC50 worked out at 0.238 µM.
In turn, `COc1cc(Nc2nc3c(-c4ccc(C(C)(C)O)c(F)c4)cc(C)cn3n2)ccc1-n1cnc(C)c1` [Example 90, 2-(2-Fluoro-4-(2-(3-methoxy-4-(4-methyl-1H-imidazol-1-yl)phenylamino)-6-methyl-[1,2,4]triazolo[1,5-a]pyridin-8-yl)phenyl)propan-2-ol] displayed an EC50 of 0.475 µM. Compared with the last compound, the EC50 is about 2-fold higher.
To `COc1cc(Nc2nc3c(-c4ccc(F)cc4Cl)cc(C4CC4)cn3n2)ccc1-n1cnc(C)c1` [Example 148, [8-(2-Chloro-4-fluoro-phenyl)-6-cyclopropyl-[1,2,4]triazolo[1,5-a]pyridin-2-yl]-[3-methoxy-4-(4-methyl-imidazol-1-yl)-phenyl]-amine] belongs 0.09 µM; to `COc1cc(Nc2nc3c(-c4ccc(N5CCOCC5)cc4)cc(C)cn3n2)ccc1-n1cnc(C)c1` [Example 82, N-(3-Methoxy-4-(4-methyl-1H-imidazol-1-yl)phenyl)-6-methyl-8-(4-morpholinophenyl)-[1,2,4]triazolo[1,5-a]pyridin-2-amine], 0.242 µM.
The same measure for `COc1cc(Nc2nc3c(-c4ccc(Cl)cc4)ccc(C(C)(C)O)n3n2)ccc1-n1cnc(C)c1` [Example 116, 2-{8-(4-Chloro-phenyl)-2-[3-methoxy-4-(4-methyl-imidazol-1-yl)-phenylamino]-[1,2,4]triazolo[1,5-a]pyridin-5-yl}-propan-2-ol]: 0.117 µM; for `COc1cc(Nc2nc3c(-c4ccc(F)cc4)cc(C)cn3n2)ccc1-n1cnc(C)c1` [Example 46, [8-(4-Fluoro-phenyl)-6-methyl-[1,2,4]triazolo[1,5-a]pyridin-2-yl]-[3-methoxy-4-(4-methyl-imidazol-1-yl)-phenyl]-amine]: 0.18 µM; for `COc1cc(Nc2nc3c(C)cnc(OCC(F)(F)F)n3n2)ccc1-n1cnc(C)c1` [Example 72, [3-Methoxy-4-(4-methyl-imidazol-1-yl)-phenyl]-[8-methyl-5-(2,2,2-trifluoro-ethoxy)-[1,2,4]triazolo[1,5-c]pyrimidin-2-yl]-amine]: 0.355 µM.
`COc1cc(Nc2nc3c(-c4ccc(F)c(C)c4)cc(C)cn3n2)ccc1-n1cnc(C)c1` [Example 76, 8-(4-Fluoro-3-methylphenyl)-N-(3-methoxy-4-(4-methyl-1H-imidazol-1-yl)phenyl)-6-methyl-[1,2,4]triazolo[1,5-a]pyridin-2-amine] had an EC50 of 0.019 µM.
For `COc1cc(Nc2nc3c(-c4ccc(CC#N)cc4)cc(C)cn3n2)ccc1-n1cnc(C)c1` [Example 83, 2-(4-(2-(3-Methoxy-4-(4-methyl-1H-imidazol-1-yl)phenylamino)-6-methyl-[1,2,4]triazolo[1,5-a]pyridin-8-yl)phenyl)acetonitrile], the response was half-maximal at 0.408 µM (EC50). Compared with the last compound, the EC50 is about 21-fold higher.
As for `COc1cc(Nc2nc3cccc(N4CCCC4)n3n2)ccc1-n1cnc(C)c1` [Example 12, [3-Methoxy-4-(4-methyl-imidazol-1-yl)-phenyl]-(5-pyrrolidin-1-yl-[1,2,4]triazolo[1,5-a]pyridin-2-yl)-amine], the EC50 was determined as 0.4 µM.
To `COc1ccc(-c2ccccc2)n2nc(Nc3ccc(-n4cnc(C)c4)c(C#N)c3)nc12` [Example 5, 5-(8-Methoxy-5-phenyl-[1,2,4]triazolo[1,5-a]pyridin-2-ylamino)-2-(4-methyl-imidazol-1-yl)-benzonitrile] belongs 0.09 µM; to `COc1cc(Nc2nc3c(-c4ccc(F)c(F)c4)cc(F)cn3n2)ccc1-n1cnc(C)c1` [Example 85, 8-(3,4-Difluorophenyl)-6-fluoro-N-(3-methoxy-4-(4-methyl-1H-imidazol-1-yl)phenyl)-[1,2,4]triazolo[1,5-a]pyridin-2-amine], 0.032 µM.
